# Test results published in patent US20160228444A1, “NUCLEOSIDE ANALOGS AND USES THEREOF” (Ramot at Tel-Aviv University Ltd., priority 2015, published 2016).
# Experiments:
# [1] = tested on: TLR4; assay: TLR4 expression in LPS-treated THP1 cells (anti-TLR4 antibodies, FACS); assay type: cell-based; conditions: 1 μg/ml LPS, AN446 20 or 40 μM, FIG. 7A
# Description: (§1) The effect of AN446 on inflammation-associated pathways was evaluated in the monocytic THP1 cell line and in the MDA-MB-231 breast carcinoma cell line. Supernatants of treated THP1 cells were collected and IL-6, IL-10 and TNF-α concentrations were quantified by ELISA (R&D systems). TLR4 expression in THP1 cells was assessed using fluorescent anti-TLR4 antibodies and FACS analysis. In addition, gene expression for MCP-1, TNF-α and TLR4 in MDA-MB-231 was evaluated by qRT-PCT, following treatment with AN446 and/or paclitaxel.
# [2] = tested on: bFGF; assay: bFGF protein and mRNA in tumor and heart of xenograft mice (Western blot, qRT-PCR); assay type: in vivo; conditions: for expression of mouse bFGF protein in the heart: FIG. 4D; for expression of bFGF in tumors / bFGF mRNA in the tumor: tumor; for bFGF mRNA in the tumor: FIG. 6
# Description: Tumors and hearts of the mice were rapidly removed, frozen on dry ice and kept at −70° C. Tissue was then homogenized and RNA and proteins extracted using the NucleoSpin® RNA/Protein kit according to the manufacturer's protocol (Macherey-Nagel, GmbH & Co KG).
# Total RNA ([…]) was primed by oligo dT and reverse-transcribed by Verso cDNA kit according to the manufacturer's protocol (Thermo Scientific). Analyses of qPCR were performed with Kapa Sybr® Fast (Kapa Biosystems) on a Step One Plus thermocycler (Applied Biosystems). The comparative threshold method was used to calculate the relative gene expression. Values were normalized against glyceraldehyde 3-phosphate dehydrogenase (GAPDH). Expression of the GAPDH mRNA in each individual sample was used to normalize the dataset. The sequences of the primers were as follows: […]
# Protein levels in the samples were determined with the BCA protein assay kit (Pierce). The samples were subjected to Western blot analyses. The expression of proteins was visualized using their specified primary antibodies followed by the secondary IgG IRDye® 680DX antibody. Each detected band was quantified using the Odyssey Infrared Imaging System (LI-COR Biosciences) and normalized to the level of actin. The fold increase of a specific protein was determined by the ratio of the band intensity obtained from treated and untreated samples.
# The pro-angiogenic factors basic fibroblast growth factor (bFGF) and vascular endothelial growth factor (VEGF) are potent angiogenic stimulators. The expression of bFGF in the tumor and in the heart was evaluated by Western blot and qRT-PCR analyses and expression of VEGF by IHC.
# [3] = tested on: astrocytes; assay: ROS production (DCF-DA, flow cytometry); assay type: cell-based, rat; conditions: FIG. 1D
# Description: (§2) ROS were measured in live cells by monitoring the oxidation of DCF-DA (a cell-permeable probe), which undergoes deacetylation by cellular esterases and fluoresces upon oxidation by ROS. U251 MG (2×10^5 cells/six-well plates), astrocytes or H9C2 (5×10^5 cells/six-well plates) were treated as specified, incubated with […] DCF-DA for 30 min at 37° C., washed with PBS and analyzed (10^4 cells) by flow cytometry using a 488 nm excitation beam (Calibur cytometer, Becton Dickinson). The percentage of cells stained positively for DCF was determined with CellQuest software (BD Biosciences, San Jose, Calif., USA).
# (§3) To gain insights into the mechanism of cell-type specific effects, ROS production in cancer cells and in non-cancer cells after treatment for 5-6 h with AN446, Dox and AN446+Dox, were assessed by staining the cells with the membrane-permeable fluorescent dye DCF-DA.
# [4] = tested on: H9C2 cells; assay: ROS production (DCF-DA, flow cytometry); assay type: cell-based, rat; conditions: FIG. 1D
# Description: as §2, §3
# [5] = tested on: MyLa CTLC cell line; assay: MTT cell viability assay, 48 hours; assay type: cell-based, human
# Description: (§4) The MyLa CTLC cell line (originating from an indolent mycosis fungoides patient) and the Hut-78 CTLC cell line (originating from an aggressive Sézary patient) were used to evaluate toxicity towards cancer cells, and peripheral blood lymphocytes (PBLs) from healthy volunteers were used to evaluate toxicity towards noncancerous cells.
# (§5) Cell viability was determined by an MTT cell viability assay after 48 hours. MyLa cells (10^4 cells/well), Hut78 cells (5×10^3 cells/well) and normal PBLs (10^5 cells/well) were seeded in 96 well-plates. The PBLs were activated with 40 μg/10^6 cells of phytohemagglutinine (PHA) for 24 h before the experiment.
# [6] = tested on: Hut-78 CTLC cell line; assay: MTT cell viability assay, 48 hours; assay type: cell-based, human
# Description: as §4, §5
# [7] = tested on: fibrous collagen; assay: Fibrosis in tumor, heart and kidney of U251 xenograft mice (Picrosirius Red / Fast Green); assay type: in vivo
# Description: AN446 was tested in vivo using a xenograft of glioblastoma (U251 cells) in mice.
# [8] = tested on: H9C2 cardiomyoblasts; assay type: cell-based, rat
# Description: Cell viability by flow cytometry analysis (FACS) analysis was determined using the Mebcyto apoptosis kit (MBL-Japan). The cell lines 4T1, U251 (2×10^5 cells/well), astrocytes and the cardiomyoblastic cell line H9C2 (5×10^5 cells/well) were seeded in six-well plates. Following treatment they were trypsinized, washed with PBS, resuspended in […] of binding buffer and double-stained with annexin V-FITC and propidium iodide (PI) according to the manufacturer's instructions. The stained cells were subjected to FACS analyses (Calibur cytometer, Becton Dickinson) where 30,000 cells were allowed to flow for each determination point and the percentage of cells in each state (viability or death) was defined by their distribution in fluorescence dot-plots using WinMdi 2.8 software (Scripps Research Institute, La-Jolla, USA).
# The apoptotic effect of AN446, Dox and their combination was evaluated in U251 and 4T1 cancer cells, and in the non-cancerous rat cardiomyoblast cell line (H9C2) and in primary rat astrocytes, using procedures previously described for AN7 [Tarasenko et al., Invest New Drugs 2012, 30:130-143].
# [9] = tested on: TNF-α; assay: TNF-α gene expression in MDA-MB-231 cells (qRT-PCR); assay type: cell-based, human; conditions: combination with paclitaxel, FIG. 7C
# Description: as §1
# [10] = tested on: IL-10; assay: IL-10 in supernatant of LPS-treated THP1 cells (ELISA); assay type: cell-based; conditions: 1 μg/ml LPS, FIG. 7B
# Description: as §1
smiles,measurement,setting,value
"CCCC(CCC)C(=O)Nc1nc2c(ncn2COCCOC(=O)C(CCC)CCC)c(=O)[nH]1 [AN446, N-valproyl-9-(2-valproyloxy)ethoxymethyl-guanine]",LPS-induced expression of TLR4,[1],suppressed
same,expression of mouse bFGF protein in the heart,[2]; co-treatment with Dox,significantly increased its expression to a level higher than that observed in naive or vehicle-treated mice
same,expression of mouse bFGF protein in the heart,[2]; single agent,unchanged
same,expression of bFGF in tumors,[2]; combination with Dox,further diminished
same,bFGF mRNA in the tumor,[2]; combined treatment with Dox,suppressed it significantly further
same,bFGF mRNA in the tumor,[2]; single agent,significantly reduced the bFGF mRNA
same,expression of bFGF in tumors,"[2]; single agent, FIGS. 4A, 4B",decreased significantly
same,ROS production and mortality in Dox-treated astrocytes,[3]; added to 200 nM Dox,attenuated ROS production and mortality
same,ROS production in astrocytes,[3]; single agent,did not induce ROS production
same,ROS production and mortality in Dox-treated H9C2 cells,[4]; added to 200 nM Dox,attenuated ROS production and mortality
same,ROS production in H9C2 cells,[4]; single agent,did not induce ROS production
same,IC50,"[5]; Homo sapiens, 48 h, read-out: IC50 MyLa",40 ± 2.3 µM
same,toxicity to MyLa cells relative to normal PBLs,[5]; from Table 1 IC50 values,about 5 fold
same,IC50,"[6]; Homo sapiens, HuT78, 48 h, read-out: IC50 HUT78",21 ± 1.3 µM
same,toxicity to Hut-78 cells relative to normal PBLs,[6]; from Table 1 IC50 values,about 10 fold
same,doxorubicin-induced fibrosis in the heart,"[7]; heart, co-administration with doxorubicin",attenuated the doxorubicin-induced fibrosis
same,doxorubicin-induced fibrosis in the kidneys,"[7]; kidneys, co-administration with doxorubicin",attenuated the doxorubicin-induced fibrosis
same,fibrosis in the tumor,"[7]; tumor, single agent, FIG. 8A",reduced fibrosis
same,cell death in H9C2 cardiomyoblasts,"[8]; 24, 48 or 72 hours, each inhibitor at its U251 IC50, FIG. 10",did not induce significant cardiomyocyte cell death
same,viability / mortality of H9C2 cells,"[8]; noncancerous cells, combination compared to Dox alone, FIG. 1C",did not substantially affect the viability
same,paclitaxel-induced increase in expression of TNF-α,[9],significantly attenuated
same,expression of IL-10,[10],doubled
